Structures are written as SMILES.

A short description of this data set: gradient 5% acetonitrile 3 min, to 50% in 2 min, to 85% in 15 min, held 3 min, 100 µL/min. The settings on record: column: Zorbax Extend-C18 2.1 x 50 mm; eluents: water / acetonitrile, 0.1% formic acid. A digest of the protocol:
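Using water and acetonitrile that each contained 0.1% formic acid, mixtures of ~100 pure standards were separated at 100 μL/min on a Zorbax Extend-C18 column (2.1 × 50 mm, 1.8 μm). The HPLC fed a quadrupole time-of-flight mass spectrometer working in positive and negative ionization mode, with dead and dwell volumes of 40 μL and 900 μL. Data were acquired over 3 months. Retention time was read from computationally picked adduct peaks after manual inspection of each.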
Regarding `O=C(Nc1ccccc1F)C1CCCN(S(=O)(=O)c2c[nH]c(C(=O)N3CCCCCC3)c2)C1` (stereo not drawn), the RP-LC retention time was 880 s. On to `COc1ccc(-c2nc(-c3ccc(S(=O)(=O)N4CCCC4)cc3)no2)cc1`, for which the RP-LC retention time turned out to be 1140 s. In turn, `Cc1ccc(S(=O)(=O)c2cnc(N3CCN(c4cc(Cl)ccc4C)CC3)nc2N)cc1C` registered an RP-LC retention time of 1420 s. The figure for `COc1ccccc1NC(=O)C1CCCN1S(=O)(=O)c1cc2c(cc1C)NC(=O)C(C)O2` (stereo not drawn) is 801 s; for `CC(C)c1nccn1C1CN(S(=O)(=O)c2cccc(F)c2)C1` it is 640 s; for `O=C(c1cccc(-n2cnnn2)c1)N1CCC(c2nnc(-c3ccco3)s2)CC1` it is 651 s. Then `N#C/C(=C\c1cccnc1)c1ccc(Br)cc1`, with 999 s. The figure for `N#CC1=CN(c2cccc(Br)c2)c2ccccc2S1(=O)=O` is 939 s; for `O=C(NCC1CCCO1)NC1CCN(c2nc3cccnc3n(Cc3ccccc3)c2=O)CC1` (stereo not drawn) it is 859 s; for `Cc1oc(C2CCN(S(=O)(=O)c3cccc(Cl)c3)CC2)nc1C(=O)N(C)C` it is 864 s. On to `O=C(c1cnccn1)N1CCC(F)(F)C(COCC2CC2)C1` (stereo not drawn), for which the RP-LC retention time turned out to be 786 s. The figure for `Fc1ccc(Nc2c(-c3ccccc3)nc3ccccn23)cc1` is 689 s; for `COC(=O)c1ccc(NC(=O)N2CCOc3ccc(C)cc32)cc1` it is 679 s; for `COc1ccc(-c2ncccc2CNS(=O)(=O)Cc2ccccc2F)cc1` it is 660 s. For `CCCN1C(=O)COc2ccc(-c3noc(-c4ccccc4Cl)n3)cc21`, the RP-LC retention time came to 1240 s. The figure for `O=C(NCc1ccco1)c1ccc(Cn2nc(N3CCN(c4ccccc4)CC3)ccc2=O)o1` is 780 s; for `Cc1ccc(-c2noc(CN3C(=O)C(C)Oc4ccccc43)n2)cc1` (stereo not drawn) it is 1120 s.

The compound `CCS(=O)(=O)N1CCCc2cc(C(=O)NCc3ccco3)ccc21` yielded an RP-LC retention time of 945 s. Then `Cc1ccc(C)c(NS(=O)(=O)c2cc3c(s2)CCN(C(=O)C2CC2)C3)c1`, with 864 s; and `O=C(Cc1ccc(Cl)cc1)Nc1cnc(N2CCCC2)nc1`, with 752 s. Then `O=C(NCc1ccccn1)c1nnn(Cc2ccc(Cl)cc2)c1-n1cccc1`, with 760 s; and `CCSC1=NCCN1C(=O)C(C)(C)Oc1ccc(Cl)cc1`, with 770 s.

For `O=C(c1csc(-c2cnccn2)n1)N1CCN(c2ccccc2Cl)CC1`, the RP-LC retention time came to 866 s. The figure for `Cc1ccc(C)c(NC(=O)N2CCN(c3ccc(=O)n(-c4ccccc4)n3)CC2)c1` is 820 s; for `Cc1ccc(CNC(=O)C2CCN(S(=O)(=O)c3cc(C(=O)N4CCCC4)n(C)c3)CC2)o1` it is 699 s; for `COc1ccc(Cc2nn3c(Cc4ccc(OC)cc4)nnc3s2)cc1` it is 913 s. `CC(=O)c1cccc(NC(=O)N2C[C@H](c3nc(-c4ccncc4)no3)[C@@H](C)C2)c1` returned an RP-LC retention time of 674 s.

The compound `CC1CN(C(=O)Cn2cc(SCC(=O)NC3CCCC3)c3ccccc32)CC(C)O1` (stereo not drawn) had an RP-LC retention time of 826 s. Then `Cc1oc(C2CCN(S(=O)(=O)Cc3ccccc3)CC2)nc1C(=O)N1CCOCC1`, with 759 s; and `Cc1cc(N2CCN(C)CC2)nc2ccc(NC(=S)N3CCN(c4ccc(F)cc4)CC3)cc12`, with 606 s. Then `Cc1cc(C)n(-c2ccc(Nc3ccc(NS(=O)(=O)c4cccc(F)c4)cc3)nn2)n1`, with 817 s; and `O=C(C1CC1)N1CCc2ccc(NS(=O)(=O)/C=C/c3ccccc3)cc21`, with 819 s; and `CCS(=O)(=O)c1ccc(-c2ccc(NC(=O)c3cc(Cl)ccc3Cl)cc2)nn1`, with 840 s.

The compound `COc1ccc(Cl)cc1NC(=O)N1CCCC(C)(C(=O)NCc2ccccc2C)C1` (stereo not drawn) registered an RP-LC retention time of 1070 s. The figure for `CCCNC(=O)C1CCCN(c2nc3ncn(CC(=O)NC4CCc5ccccc54)c(=O)c3s2)C1` (stereo not drawn) is 709 s; for `COC(=O)c1ccsc1NC(=O)C1COCC(=O)N1Cc1ccccc1` (stereo not drawn) it is 786 s; for `CCCN(C)c1nccnc1OC1CCN(Cc2cccnc2)C1` (stereo not drawn) it is 594 s. Then `CCN1CCCc2cc(C(=O)N3CCC4(CC3)OCCO4)sc21`, with 603 s; and `O=C(CC(c1cccs1)n1cccc1)N1CCN(c2ccccn2)CC1` (stereo not drawn), with 659 s.

For `Cc1cccc(NC(=O)N2[C@H]3CC[C@@H]2c2cnc(-c4ccccc4)nc2C3)c1`, the RP-LC retention time was determined as 982 s. Then `COc1ccc(C(=O)Nc2ccc3c(c2)N(C(=O)C2CCCO2)CC3)c(OC)c1OC` (stereo not drawn), with 615 s.

`Cc1cccc(NC(=O)C2CCN(S(=O)(=O)c3cc(C(=O)N4CCCC4)n(C)c3)CC2)c1C` showed an RP-LC retention time of 843 s.

`Cc1ccc2c(=O)c(C(=O)N3CCCC3)cn(CC(=O)Nc3ccc(F)cc3F)c2n1` gave an RP-LC retention time of 692 s. Then `N#Cc1ccccc1NC(=O)c1ccc(N2C(=O)CCC2=O)cc1`, with 639 s; and `CCN1C(=O)c2cccnc2Sc2cc(NC(=O)Cc3ccccc3Cl)ccc21`, with 856 s. Then `COCCNC(=O)c1ccccc1-c1ocnc1C(=O)OC`, with 611 s; and `O=S(=O)(c1ccc2nc(N3CCN(c4cccc(Cl)c4)CC3)ccc2c1)N1CCCCC1`, with 1240 s.

The compound `CCN(CC)S(=O)(=O)N1CCC(C(=O)NCCc2ccc(OC)c(OC)c2)CC1` showed an RP-LC retention time of 751 s.

`CNC(=O)c1cnn(-c2ccc(-c3nc(C4CC4)no3)cn2)c1C`: the RP-LC retention time was 746 s.

`COc1ccccc1C(=O)Nc1c2c(nn1C(C)(C)C)CS(=O)(=O)C2`: the RP-LC retention time came to 740 s. Then `Cn1c(C2CCN(C(=O)c3cc4c(s3)CCCC4)C2)nc2cccnc21` (stereo not drawn), with 797 s.

In turn, `COCCNC(=O)C1CCN(c2nc3ccc(-c4cccs4)nc3s2)CC1` yielded an RP-LC retention time of 774 s. Then `Cc1ccc(S(=O)(=O)N2C[C@@H](F)C[C@H]2C(=O)N2CCCCC2)cc1F`, with 836 s; and `CC(=O)c1cccc(NC(=O)C2CC(=O)N(c3ccc4c(c3)CCN4C(=O)C3CCC3)C2)c1` (stereo not drawn), with 760 s; and `O=C(C1CCN(c2nnc(-c3ccccc3)o2)CC1)N1CCCCCC1`, with 810 s. `CCCN1C(=O)Cc2ccccc2C1C(=O)NCc1cccs1` (stereo not drawn): the RP-LC retention time was found to be 758 s. The figure for `O=C([C@@H]1C[C@H](Oc2cccnc2)CN1C(=O)c1n[nH]c(=O)c2ccccc12)N1CCCC1` is 564 s; for `COC(=O)c1ncn2c1C(=O)N(c1ccc(C)cc1)C(C)(C(=O)NCc1ccc(C)cc1)C2` (stereo not drawn) it is 747 s. For the compound `Cc1ccc(-n2c(=O)n(C)c(=O)c3cc(C(=O)Nc4ccccc4C(N)=O)cnc32)cc1`, the RP-LC retention time was determined as 857 s. Then `COc1ccccc1NC(=O)C1CCN(c2cc(N3CCSCC3)ncn2)CC1`, with 684 s. Then `CSc1cccc(NC(=O)Cn2cccc(-c3nc(-c4ccc(Cl)cc4)no3)c2=O)c1`, with 1020 s. Consider `Cc1nc(Nc2ncc3c(n2)CC(c2ccc(F)cc2)CC3=O)nc2c(C)cccc12` (stereo not drawn), for which the RP-LC retention time stood at 746 s. The figure for `COc1ccc(NS(=O)(=O)c2c(C)sc(C)c2-c2cc(C(F)(F)F)on2)cc1Cl` is 1180 s; for `O=C(c1ccco1)N1CCN(c2ncnc3sc(-c4ccccc4)cc23)CC1` it is 840 s; for `CN1CCN(CCNC(=O)c2ccc3c(c2)N(C)C(=O)C2CCCCN32)CC1` (stereo not drawn) it is 572 s. Take `O=S(=O)(NCc1cccnc1)c1cc(-c2nnc(-c3ccccc3)o2)ccc1F`: the RP-LC retention time was determined as 673 s. Then `CCOc1ccc(NC(=O)Cc2nnc(-c3ccncc3)o2)cc1`, with 670 s. Then `COCCN1CCn2cc(S(=O)(=O)Nc3ccc(C)cc3F)cc2C1=O`, with 740 s; and `CCOC(=O)c1csc(NC(=O)c2ccc3ncsc3c2)n1`, with 726 s. Regarding `CCN(CC)C(=O)c1cc2c(s1)CCC(C(=O)O)C2` (stereo not drawn), the RP-LC retention time worked out at 703 s. Consider `Cc1ccc(Nc2cc(-n3ccnc3)ncn2)cc1`, for which the RP-LC retention time is 651 s.

Regarding `Cc1c(Cl)cccc1NC(=O)Cn1c(C)nc2c(sc3nc(-c4ccccc4)ccc32)c1=O`, the RP-LC retention time amounted to 1210 s. Then `O=C(Cc1csc(NC(=O)c2ccco2)n1)Nc1nc2ccc([N+](=O)[O-])cc2s1`, with 797 s; and `CCn1c(=O)sc2cc(S(=O)(=O)N3CCC(C(=O)Nc4cccc(C)c4)CC3)ccc21`, with 962 s; and `OCCc1nc2ccccc2n1C/C=C/c1ccccc1`, with 586 s.

`CCc1ccc(-n2cc(C(=O)OCC(=O)OC)c3ccccc3c2=O)cc1` displayed an RP-LC retention time of 1080 s.

Compound `O=C(NCc1ccc2c(c1)OCO2)c1nn(-c2ccc(Cl)cc2)nc1CO` yielded an RP-LC retention time of 1010 s. Then `Cc1nnc(-c2c(S(=O)(=O)NC3CCCCCC3)c(C)n(C)c2C)o1`, with 900 s.

The values above are taken from the METLIN SMRT retention time set (Domingo-Almenara et al. 2019).
